Measured values from patent US20030171276A1, “Preventives and remedies for chronic hepatitis” (priority 1999, published 2003).

Tested on: recombinant E2 protein binding to CD81 expressed in Jurkat cells
Test: Inhibition of binding of recombinant E2 protein to Jurkat cells (FACScan)
Format: cell-based, HCV
Details: 1 μg recombinant E2 protein preincubated with 10 μL of 1 mg/mL solution, room temperature 1 hour; FIG. 14
Experimental: An oligopeptide capable of binding to HCV E2 antigen is reacted with the HCV E2 antigen to study whether or not binding of CD81 expressed in Jurkat cells purchased from DAINIPPON PHARMACEUTICAL CO., LTD. to the HCV E2 antigen is inhibited. By the study, whether or not the selected oligopeptide inhibits adhesion of the HCV E2 antigen to CD81-positive cells can be estimated. The inhibitory activity for adhesion of CD81 to the IICV E2 antigen was assayed in accordance with the literature. The concrete description will be given hereinbelow.
The Jurkat cells were prepared in the same manner as in item (1), and suspended in WB so as to have a concentration of 4×10^6 cells/mL, to give a Jurkat cell suspension. […]
Hereinafter, in the same manner as in the item (1) above, the resulting product was reacted with an FITC-labeled anti-mouse IgG1 antibody, and thereafter the reaction mixture was suspended in 0.2 mL of a 10% neutral buffered formalin solution. As to the resulting product, E2 protein bound to Jurkat cells was analyzed by using FACScan.
One microgram of the recombinant E2 protein, and 10 μL of the TAPA148, bLF or bLF443 solution obtained in item (4) above were added to a 6 mm rounded-bottom tube and, and WB was then added thereto, to give 50 μL of a mixture. […] As to the resulting suspension, E2 protein bound to Jurkat cells was analyzed by using FACScan.

Substance	inhibitory action of binding of E2 protein to Jurkat cells
TAPA148: Human CD81-derived peptide, SEQ ID NO: 23 (TFHETLDCCGSSTLTALTTSVLKNNLCPSGSNIISNLFKTDCHQKIDDLTSGK; Synthesized peptide TAPA148 which is derived from human CD81)	inhibitory action of binding of E2 protein
bLF443: Bovine lactoferrin-derived peptide, SEQ ID NO: 24 (LDCVLRPTEGYLAVAVVKKANEGLTWNSLKDKKSCH; Synthesized peptide bLF443 which is derived from bovine lactoferrin)	inhibitory action of binding of the E2 protein
